# Test results: patent publication EP2423181A1, “Multitarget substituted biphenyl diol derivatives” (PROUS INSTITUTE FOR BIOMEDICAL RESEARCH S.A., priority 2010, dated 2012)
# pIC50: −log10 of the molar value. Counter-ions that a name gives are not always drawn. Like-named read-outs stand apart in the source and are kept apart here.
# Assays:
# COX-2 = molecular target: T1, COX-2 (Homo sapiens, UniProt P35354); assay: COX-2 inhibition (PGE2 enzyme immunoassay); assay type: biochemical; conditions: read-out: % COX-2 inhibition
# T1 construct: host or cells: Sf21 insect cells
# T1 sequence (P35354 18-604): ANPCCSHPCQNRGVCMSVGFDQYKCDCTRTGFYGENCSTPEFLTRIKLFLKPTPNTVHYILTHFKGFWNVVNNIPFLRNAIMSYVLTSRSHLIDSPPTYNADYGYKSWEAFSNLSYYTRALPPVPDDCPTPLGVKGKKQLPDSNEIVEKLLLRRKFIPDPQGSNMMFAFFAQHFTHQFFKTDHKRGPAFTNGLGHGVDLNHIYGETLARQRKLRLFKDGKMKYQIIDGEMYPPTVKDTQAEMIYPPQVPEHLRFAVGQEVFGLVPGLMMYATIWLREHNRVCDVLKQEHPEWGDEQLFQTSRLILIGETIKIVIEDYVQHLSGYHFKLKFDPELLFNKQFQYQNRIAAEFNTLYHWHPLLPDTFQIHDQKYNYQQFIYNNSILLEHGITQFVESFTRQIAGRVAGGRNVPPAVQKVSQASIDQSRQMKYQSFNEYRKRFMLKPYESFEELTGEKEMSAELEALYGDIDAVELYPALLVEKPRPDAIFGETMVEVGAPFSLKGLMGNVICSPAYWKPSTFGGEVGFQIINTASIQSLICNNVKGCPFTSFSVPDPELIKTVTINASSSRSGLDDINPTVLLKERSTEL
# Experimental: (§1) The COX-1 inhibitory activity of representative compounds of the invention was determined according to previously reported methods. COX-1 activity was assessed in human platelets using 100 µM arachidonic acid as a substrate and preincubation and incubation times of 15 min at 37 °C in HBSS, 15 mM HEPES pH 7.4 . The quantification method used was enzyme immunoassay determination of PGE2 (Chan, C.C. et al. J Pharmacol Exp Ther, 1999, 290, 551-560; Swinney, D.C. et al. J Biol Chem, 1997, 272, 12393-12398; Warner, T.D. et al. Proc Natl Acad Sci U S A, 1999, 96, 7563-7568; Riendeau, D. et al. Can J Physiol Pharmacol, 1997, 75, 1088-1095). COX-2 inhibitory activity was determined in human recombinant insect Sf21 cells according to references (Warner, T.D. et al., Proc Natl Acad Sci, USA. 1999;96(13):7563-7568; Riendeau, D. et al., Can J Physiol Pharmacol, 1997 ;75(9):1088-1095). Briefly, the COX-2 inhibitory activity was assessed on human recombinant insect Sf21 cells using 0.3 µM arachidonic acid as a substrate and preincubation and incubation times of 15 and 5 min, respectively, at 37 °C in 100 mM Tris-HCl, pH 7.7. The quantification method used was enzyme immunoassay determination of PGE2. Table 11. Inhibition of COX-1 and COX-2 at 10 µM
# EGFR = molecular target: T2, EGFR (Homo sapiens, UniProt P00533); assay: EGF receptor tyrosine-protein kinase inhibition (ELISA of Poly[Glu:Tyr-P]); assay type: biochemical
# T2 construct: EGF receptor tyrosin-protein kinase activity was assessed in human A431 cells; endogenous in cells; host or cells: human A431 cells
# Experimental: EGF receptor tyrosin-protein kinase activity was assessed in human A431 cells using as a substrate Poly(Glu:Tyr) at 10 µg/ml with a preincubation and incubation times of 15 and 60 min, respectively, at 25°C respectively in 50 mM HEPES pH 7.4, 20 mM MgCl2 and 0.2 mM Na3VO4. An ELISA quantification method of Poly[Glu:Tyr-P] was employed (Cheng, K. and Koland, J.G. J Biol Chem, 1996, 271, 311-318). Table 5. Inhibition of EGFR at 10 µM
# COX-1 = molecular target: T3, COX-1 (Homo sapiens, UniProt P23219); assay: COX-1 inhibition in human platelets (PGE2 enzyme immunoassay); assay type: biochemical; conditions: read-out: % COX-1 Inhibition
# T3 construct: endogenous in cells; host or cells: human platelets
# Experimental: as §1
# 5-LO = molecular target: T4, 5-LO (Homo sapiens, UniProt P09917); assay: 5-Lipoxygenase inhibition (LTB4 enzyme immunoassay); assay type: biochemical
# T4 construct: host or cells: Sf9 insect cells
# T4 sequence (P09917 1-674): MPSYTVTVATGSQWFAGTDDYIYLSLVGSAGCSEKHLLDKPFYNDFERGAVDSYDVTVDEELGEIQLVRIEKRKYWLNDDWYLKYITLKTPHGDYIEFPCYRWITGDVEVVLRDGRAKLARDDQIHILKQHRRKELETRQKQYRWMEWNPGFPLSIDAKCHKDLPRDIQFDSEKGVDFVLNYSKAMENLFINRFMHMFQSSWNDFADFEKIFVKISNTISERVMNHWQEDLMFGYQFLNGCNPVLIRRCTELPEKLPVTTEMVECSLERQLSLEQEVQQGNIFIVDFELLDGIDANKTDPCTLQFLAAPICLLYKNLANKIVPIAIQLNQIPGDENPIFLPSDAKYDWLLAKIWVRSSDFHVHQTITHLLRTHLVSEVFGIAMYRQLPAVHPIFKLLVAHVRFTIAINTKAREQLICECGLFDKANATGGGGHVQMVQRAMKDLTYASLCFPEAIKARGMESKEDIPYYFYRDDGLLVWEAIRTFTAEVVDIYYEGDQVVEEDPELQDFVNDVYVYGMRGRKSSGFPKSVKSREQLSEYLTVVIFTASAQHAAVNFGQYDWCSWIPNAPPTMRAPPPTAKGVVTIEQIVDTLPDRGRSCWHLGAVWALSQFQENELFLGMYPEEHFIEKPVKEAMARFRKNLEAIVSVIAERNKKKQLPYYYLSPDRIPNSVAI
# Experimental: The 5-LO-inhibitory activity of compounds of the invention was determined using previously reported assays. Briefly, lipoxygenase activity was evaluated in human recombinant insect Sf9 cells using 3µM arachidonic acid as a substrate with a preincubation and incubation times of 15 and 5 min respectively at 25°C in a 50 mM Tris-HCl, pH 7.4, 2 mM CaCl2, 1 mM ATP. The quantification method used was enzyme immunoassay determination of LTB4 and the significance criteria were established with a response equal or different of the maximum stimulation or inhibition (Noguchi, M. et al., Eur J Biochem, 1994, 222(2), 285-292; Percival, M.D. et al., Eur J Biochem, 1992, 210(1), 109-117).
# tumor melanoma B16-FO = assay: Tumor cell proliferation assay (alamarBlue); assay type: cell-based, murine; conditions: Mus musculus
# Experimental: Changes in cell proliferation were detected based on the ability of viable cells to cause alamarBlue® to change its oxidized (non-fluorescent, blue) to a reduced (fluorescent, red) form. The alamarBlue® reaction allows the quantification of cell proliferation and examination of the metabolic activity of viable cells. Test substances were examined for activity on the proliferation of human or murine tumor cell lines at assay concentrations from 0.01 to 100 µM.
# [1] = EGFR, at 10 µM, read-out: % Inhibition
# [2] = 5-LO, at 10 µM, read-out: % Inhibition
# [3] = tumor melanoma B16-FO, read-out: IC50
# T3 sequence (P23219 24-599): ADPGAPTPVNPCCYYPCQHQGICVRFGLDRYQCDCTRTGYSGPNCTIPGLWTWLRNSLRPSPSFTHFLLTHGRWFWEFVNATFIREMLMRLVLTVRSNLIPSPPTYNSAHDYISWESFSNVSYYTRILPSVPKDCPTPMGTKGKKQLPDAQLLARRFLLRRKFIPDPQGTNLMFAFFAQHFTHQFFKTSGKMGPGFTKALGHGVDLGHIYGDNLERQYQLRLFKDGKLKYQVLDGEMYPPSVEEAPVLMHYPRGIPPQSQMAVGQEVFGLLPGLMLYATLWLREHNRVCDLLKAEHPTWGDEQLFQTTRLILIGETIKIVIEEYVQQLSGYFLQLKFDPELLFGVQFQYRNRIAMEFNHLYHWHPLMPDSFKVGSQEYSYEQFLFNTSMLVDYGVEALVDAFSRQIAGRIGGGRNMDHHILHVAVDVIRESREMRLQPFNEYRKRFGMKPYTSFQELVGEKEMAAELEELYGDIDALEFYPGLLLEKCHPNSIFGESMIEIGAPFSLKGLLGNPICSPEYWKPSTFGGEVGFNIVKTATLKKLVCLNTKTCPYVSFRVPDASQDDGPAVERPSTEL
# T2 sequence (P00533 25-1210): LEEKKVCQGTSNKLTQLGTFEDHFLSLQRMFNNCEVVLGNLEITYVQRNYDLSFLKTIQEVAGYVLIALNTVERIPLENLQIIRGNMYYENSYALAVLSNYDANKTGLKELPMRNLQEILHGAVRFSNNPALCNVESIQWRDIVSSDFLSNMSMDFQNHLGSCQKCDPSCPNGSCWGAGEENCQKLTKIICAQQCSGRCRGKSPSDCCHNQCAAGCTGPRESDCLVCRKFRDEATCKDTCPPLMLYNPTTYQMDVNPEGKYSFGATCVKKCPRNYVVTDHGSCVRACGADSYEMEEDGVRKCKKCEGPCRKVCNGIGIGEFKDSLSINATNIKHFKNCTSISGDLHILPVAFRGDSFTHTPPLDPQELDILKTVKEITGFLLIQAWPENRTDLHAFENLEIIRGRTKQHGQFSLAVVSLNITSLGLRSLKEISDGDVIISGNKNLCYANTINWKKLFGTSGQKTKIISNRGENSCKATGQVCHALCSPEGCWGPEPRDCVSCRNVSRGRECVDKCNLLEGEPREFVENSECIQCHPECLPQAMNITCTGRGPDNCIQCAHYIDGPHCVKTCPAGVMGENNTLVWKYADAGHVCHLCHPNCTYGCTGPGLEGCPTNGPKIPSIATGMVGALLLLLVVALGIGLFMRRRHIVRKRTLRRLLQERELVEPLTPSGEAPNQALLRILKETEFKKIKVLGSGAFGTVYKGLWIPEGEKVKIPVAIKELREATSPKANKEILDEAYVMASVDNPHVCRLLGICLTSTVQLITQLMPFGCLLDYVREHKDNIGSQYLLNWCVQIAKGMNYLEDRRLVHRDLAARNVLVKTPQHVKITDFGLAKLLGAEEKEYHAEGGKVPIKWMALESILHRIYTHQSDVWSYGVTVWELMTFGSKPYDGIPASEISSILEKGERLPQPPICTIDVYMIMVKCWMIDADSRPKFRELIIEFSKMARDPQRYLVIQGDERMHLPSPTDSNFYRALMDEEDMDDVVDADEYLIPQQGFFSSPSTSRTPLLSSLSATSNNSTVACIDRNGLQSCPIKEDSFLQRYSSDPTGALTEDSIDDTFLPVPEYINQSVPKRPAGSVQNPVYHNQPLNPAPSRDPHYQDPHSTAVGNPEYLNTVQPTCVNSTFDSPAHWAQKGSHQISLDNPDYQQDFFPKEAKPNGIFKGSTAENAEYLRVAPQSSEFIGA
SMILES,inhibition at 10 µM (COX-2; at 10 µM) [%],inhibition at 10 µM (EGFR; [1]) [%],"inhibition at 10 µM (COX-1; at 10 µM, human platelets) [%]",inhibition at 10 µM (5-LO; [2]) [%],pIC50 (tumor melanoma B16-FO; [3]),inhibition at 10 µM (COX-2) [%],inhibition at 10 µM (EGFR) [%],inhibition at 10 µM (COX-1) [%],inhibition at 10 µM (5-LO) [%],pIC50 (tumor melanoma B16-FO)
"C=CCc1ccc(O)c(-c2cc(CC=C)ccc2OC(CCNC)c2ccccc2)c1.Cl (stereo not drawn) [Example 1, 5,5'-Diallyl-2'-[3-(methylamino)-1-phenylpropoxy]biphenyl-2-ol hydrochloride]",0,72,81,100,5.72,,,,,
"C=CCc1ccc(O)c(-c2ccc(OC(CCNC)c3ccccc3)c(CC=C)c2)c1 (stereo not drawn) [Example 5, 3',5-Diallvl-4'-13-(methylamino)-1-phenylpropoxy]biphenyl-2-ol hydrochloride]",,,,,,0,99,75,101,5.80
"C=CCc1ccc(O)c(-c2ccc(O)c(CC=C)c2)c1 [Honokiol, reference compound]",79,7,0,85,4.52,,,,,
